Data taken from US8420852B2, “Phospholipase A2 inhibitors and their use in treating neurological injury and disease” (The Regents of the University of California, priority 2007, dated 2013).
Entries after “also recorded” stand apart in the source; their conditions may differ.

Columns and labels:
GIIA PLA2 = biological target: T1, GIIA PLA2 (Homo sapiens, UniProt P14555); assay: vesicle assay for GIIA PLA2; format: biochemical
T1 sequence (P14555 21-144): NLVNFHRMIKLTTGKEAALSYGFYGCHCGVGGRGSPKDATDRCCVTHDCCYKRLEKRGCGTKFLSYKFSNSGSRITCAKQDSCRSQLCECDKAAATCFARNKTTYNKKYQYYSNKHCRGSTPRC
Text: Vesicle assays have generally been employed for this enzyme, but they have limitations for in vitro comparison of inhibitor potency.

sPLA2 (GV) = biological target: T2, sPLA2 (GV) (Homo sapiens, UniProt P39877); assay: sPLA2 inhibition assay; format: biochemical; details: at 0.091 mol fraction
T2 sequence (P39877 21-138): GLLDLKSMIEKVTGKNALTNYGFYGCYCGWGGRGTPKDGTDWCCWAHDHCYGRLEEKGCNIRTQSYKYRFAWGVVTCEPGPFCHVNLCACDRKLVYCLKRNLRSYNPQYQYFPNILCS
Protocol: The compounds described herein were tested for inhibition of PLA2s in in vitro assay systems. The data, summarized in the Examples, are represented as XI(50) values unless otherwise noted. XI(50) is defined as the inhibitor concentration that produced 50% inhibition. XI(50) is used as opposed to the more common IC50 because GIVA and GVIA PLA2 are active at a two-dimensional lipid interface rather than in three-dimensional solution. (Deems, Anal. Biochem., 287:1-16, 2000). For the groups that received delayed treatment after symptoms occurred, mice were treated with daily intraperitoneal injections of AX059 starting from the first day of clinical symptoms, beginning on day 11; and AX115 starting from the first day of clinical peak (i.e., score 4), beginning of day 14. All inhibitors were administered for 2 weeks. The selectivity of the compounds for the different PLA2s is shown as the percentage inhibition in Table 1. The XI(50) is the mole fraction of the inhibitor in the total substrate interface required to inhibit the enzyme by 50%. PLA2 inhibitors. It has been previously reported that long chain 2-oxoamides based on gamma-amino acids are potent inhibitors of cPLA2 (GIVA). […] A 2-oxoamide based on a glycine methyl ester, AX115, inhibits sPLA2 (GV) as well as cPLA2 (GIVA) and iPLA2 (GVIA). […]

iPLA2 (GVIA) = biological target: T3, iPLA2 (GVIA) (Homo sapiens, UniProt O60733); assay: standard iPLA2 (GVIA) activity assay, DPPC/Triton X-100 mixed micelles; format: biochemical; details: at 0.091 mol fraction
T3 sequence (O60733 1-806): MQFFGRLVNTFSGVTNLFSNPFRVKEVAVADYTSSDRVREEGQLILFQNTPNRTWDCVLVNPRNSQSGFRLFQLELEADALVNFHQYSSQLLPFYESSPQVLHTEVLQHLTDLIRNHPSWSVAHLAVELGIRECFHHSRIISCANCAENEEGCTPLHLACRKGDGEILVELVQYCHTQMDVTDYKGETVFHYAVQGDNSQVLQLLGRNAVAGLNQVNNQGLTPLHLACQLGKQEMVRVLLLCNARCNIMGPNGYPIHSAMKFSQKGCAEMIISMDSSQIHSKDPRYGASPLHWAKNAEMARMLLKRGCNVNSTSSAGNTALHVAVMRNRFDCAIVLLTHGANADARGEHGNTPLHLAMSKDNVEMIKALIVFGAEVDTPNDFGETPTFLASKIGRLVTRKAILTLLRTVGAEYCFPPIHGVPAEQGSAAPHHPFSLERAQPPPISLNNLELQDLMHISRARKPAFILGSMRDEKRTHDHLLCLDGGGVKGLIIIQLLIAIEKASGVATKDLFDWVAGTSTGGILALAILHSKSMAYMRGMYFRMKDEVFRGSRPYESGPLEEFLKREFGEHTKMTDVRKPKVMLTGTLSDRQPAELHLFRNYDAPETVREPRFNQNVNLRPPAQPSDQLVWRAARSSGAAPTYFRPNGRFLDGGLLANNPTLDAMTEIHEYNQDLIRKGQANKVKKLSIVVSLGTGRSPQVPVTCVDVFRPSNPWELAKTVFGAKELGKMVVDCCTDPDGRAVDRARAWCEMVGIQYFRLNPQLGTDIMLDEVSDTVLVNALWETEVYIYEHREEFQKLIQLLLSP
Protocol: The compounds described herein were tested for inhibition of PLA2s in in vitro assay systems. The data, summarized in the Examples, are represented as XI(50) values unless otherwise noted. XI(50) is defined as the inhibitor concentration that produced 50% inhibition. XI(50) is used as opposed to the more common IC50 because GIVA and GVIA PLA2 are active at a two-dimensional lipid interface rather than in three-dimensional solution. (Deems, Anal. Biochem., 287:1-16, 2000).
For the groups that received delayed treatment after symptoms occurred, mice were treated with daily intraperitoneal injections of AX059 starting from the first day of clinical symptoms, beginning on day 11; and AX115 starting from the first day of clinical peak (i.e., score 4), beginning of day 14. All inhibitors were administered for 2 weeks. The selectivity of the compounds for the different PLA2s is shown as the percentage inhibition in Table 1. The XI(50) is the mole fraction of the inhibitor in the total substrate interface required to inhibit the enzyme by 50%.
Compound AX115 was tested for its ability to inhibit human cPLA2 (GIVA) in a cPLA2 (GIVA) specific assay that uses mixed micelles of the substrate 1-palmitoyl-2-arachidonyl phosphatidylcholine and the detergent Triton X-100 (97:3) containing phosphatidylinositol 4,5-bisphosphate (400 μM) as previously described. […]

[1] = system: SJL/J mice induced with EAE; assay: EAE model of multiple sclerosis, clinical score; format: in vivo, mouse

SMILES: CCCCCCCCCCCCCCC(=O)C(=O)NCC(=O)OC [AX115]
- inhibition of GIIA compared with GV PLA2 (GIIA PLA2): comparable inhibition
- Inhibition sPLA2 GIVA/GV* (sPLA2 (GV)): 52%
- Inhibition iPLA2GIVA (iPLA2 (GVIA)): 45%
- mean maximal peak clinical grade at day 17 ([1]; delayed treatment from peak of first attack, did not differ from vehicle): ~3
- clinical score on day 35 ([1]; delayed treatment from peak of first attack, vehicle 2.3): 2.8
- clinical score on day 23 ([1]; delayed treatment from peak of first attack, vehicle about 1.4): 2.5
- clinical course of EAE vs vehicle control ([1]; delayed treatment from peak of first clinical attack (day 14), daily i.p.): prevents remission of the disease; also recorded: remission was prevented; also recorded: worsened the disease
- clinical course of EAE vs vehicle control ([1]; treatment before onset of symptoms, from day 5/6 after immunization, daily for 3 weeks): no statistical significance; also recorded: did not differ from vehicle treated control mice; also recorded: did not substantially differ from vehicle treated controls
